Several values for one entry are separate records, joined by “and”; a condition that tells them apart may be missing. Identical values can stand only once.
Assays:
Lp-PLA2 [1] = molecular target: T1, Lp-PLA2 (Homo sapiens, UniProt Q13093); assay: High throughput radiometric assay for Lp-PLA2 activity (3H-PAF); type: biochemical; details: plasma of individual human subjects
T1 sequence (Q13093 22-441): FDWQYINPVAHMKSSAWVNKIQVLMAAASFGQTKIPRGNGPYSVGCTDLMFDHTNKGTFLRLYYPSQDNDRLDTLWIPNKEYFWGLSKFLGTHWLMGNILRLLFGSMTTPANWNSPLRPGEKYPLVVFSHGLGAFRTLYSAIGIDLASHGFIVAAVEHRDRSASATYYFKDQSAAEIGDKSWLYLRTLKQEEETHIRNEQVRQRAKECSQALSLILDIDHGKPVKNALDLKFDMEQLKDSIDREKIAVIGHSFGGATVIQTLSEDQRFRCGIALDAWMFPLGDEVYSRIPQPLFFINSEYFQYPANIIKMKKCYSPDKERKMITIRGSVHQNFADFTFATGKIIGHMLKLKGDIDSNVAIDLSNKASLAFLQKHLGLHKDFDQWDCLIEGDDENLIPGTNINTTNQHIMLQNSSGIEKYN
Method: (cat #6005162) Reagents • HEPES (4-(2-hydroxyethyl)-1-piperazineethane sulfonic acid) Sigma Chemical Co., St. Louis Mo. […] (Cat # E7889; 0.5 M) • ^3H-Platelet Activating Factor, 1-O-Hexadecyl-[acetyl-^3H(N)], (^3H-PAF)-NEN Life Science Products, Roxbury, Mass. (Cat # NET-910, supplied as an ethanol solution, typically 0.1 mCi/mL; 250 uCi) • C16-PAF, (1-hexadecyl-2-acetyl-sn-glycero-3-phosphocholine): Avanti Polar Lipids, Alabaster, Ala. […] (Cat # T9159) Assay Buffer • 100 mM Hepes, pH 7.4 • 150 mM NaCl • 5 mM EDTA • Store it at room temperature Procedures • 1. Prepare a ^3H-PAF working solution (for 100 reactions): • a) Aliquot 480 μl ^3H-PAF (10 μM=0.1 mCi/ml at 10.0 Ci/mmol) and 125.3 μl of [C16]PAF (5.0 mg/ml; MW: 524) to a tube; • b) Mix and air dry in the hood; • c) Resuspend the dried pellets in 12.0 ml of assay buffer giving working solutions of 100 μM PAF (i.e. ^3H-PAF at 0.4 μM and cold [C16]PAF at 99.6 μM); • 2. Aliquot 5 μL of assay buffer (for Total counts and Blanks; n=8) or plasma samples in duplicates into a 96-well plate; • 3. Equilibrate the plate to 21° C.; • 4. Add 100 μL of the ^3H-PAF solution to each well, mix and incubate the plate at 21° C. for 5 minutes; • 5. […]; • 6. Add 25 μL of ice-cold TCA solution (56%) to each well, mix and incubate the plate in a refrigerator for 15 minutes; • 7. Centrifuge the plate at 6,000 g for 15 minutes at 4° C.; • 8. […] Add 10 μL of ^3H-PAF working solution to 6 Total Counts wells; • 10. […] Cover the plate with a plate tape and vortex mix at max speed for 10 minutes; • 12. […] Count with a TopCount scintillation counter for 2 minutes each; and • 14.

Lp-PLA2 [2] = molecular target: T1, Lp-PLA2; assay: Auto PAF AH assay (Azwell kit, Olympus Au640 analyzer); type: biochemical; details: 50 mg, plasma of individual human subjects
Method: The Auto PAF AH assay kit, manufactured by Azwell (Osaka, Japan), is commercially available in the United States through Karlan Research Products Corporation (Santa Rosa, Calif.).
Prepare the following reagents: • R1: Use this buffer solution as supplied in Azwell Auto PAF AH assay kit. Store at 4° C. Protect from light. • R2: Prepare the R2 working solution by mixing R2A and R2B (supplied in Azwell Auto PAF AH assay kit) in the proportion of 19:1, Store at 4° C. Protect from light. • 3. […] Briefly centrifuge to spin down fibrin clots/particles in the plasma. • 4. Place Sarstedt tubes containing plasma samples onto sample tubes that fit the instrument. Run plasma samples through the Au640 analyzer. After choosing the PAF AH assay program, the analytical procedure described below is performed automatically: • Test sample (2 μL)+R1 (240 μL), 37° C., 5 minutes [0-5 minutes] • Add R2 (80 μL), 37° C., 5 minutes [5-10 minutes] • Measure the absorbance at 410 nm and 480 nm [6-8 minutes] • Calculate PAF AH activity (IU/L) • 5.

Structure (SMILES): COCCN1CCC(N(Cc2ccc(-c3ccc(C(F)(F)F)cc3)cc2)C(=O)Cn2c(SCc3cccc(F)c3F)cc(=O)c3ccccc32)CC1 [Formula I]
- % Inhibition Radiometric (Lp-PLA2 [1]; 50 mg, 0.5 hr after dosing): 22.34% and 17.17% and 25.59%
- Lp-PLA2 Activity Radiometric (Lp-PLA2 [1]; 50 mg, 0.5 hr after dosing): 65.24 nmol/min/mL and 50.18 nmol/min/mL and 78.40 nmol/min/mL and 22.46 nmol/min/mL and 104.52 nmol/min/mL
- % Inhibition Radiometric (Lp-PLA2 [1]; 50 mg, 1 hr after dosing): 77.76% and 60.11%
- Lp-PLA2 Activity Radiometric (Lp-PLA2 [1]; 50 mg, 1 hr after dosing): 15.85 nmol/min/mL and 26.80 nmol/min/mL and 18.68 nmol/min/mL and 10.60 nmol/min/mL and 30.87 nmol/min/mL
- Lp-PLA2 Activity Radiometric (Lp-PLA2 [1]; 50 mg, 2 hr after dosing): 10.00 nmol/min/mL
- Lp-PLA2 Activity Radiometric (Lp-PLA2 [1]; 50 mg, 4 hr after dosing): 10.02 nmol/min/mL and 20.76 nmol/min/mL and 14.37 nmol/min/mL and 11.47 nmol/min/mL
- % Inhibition Radiometric (Lp-PLA2 [1]; 50 mg, 5 hr after dosing): 86.07%
- % Inhibition Radiometric (Lp-PLA2 [1]; 120 mg, 0.5 hr after dosing): 64.75% and 81.63% and 44.97% and 33.96%
- Lp-PLA2 Activity Radiometric (Lp-PLA2 [1]; 120 mg, 0.5 hr after dosing): 35.83 nmol/min/mL and 25.97 nmol/min/mL and 16.07 nmol/min/mL and 39.68 nmol/min/mL and 58.09 nmol/min/mL
- % Inhibition Radiometric (Lp-PLA2 [1]; 120 mg, 1 hr after dosing): 88.66%
- Lp-PLA2 Activity Radiometric (Lp-PLA2 [1]; 120 mg, 1 hr after dosing): 10.00 nmol/min/mL
- Lp-PLA2 Activity Radiometric (Lp-PLA2 [1]; 120 mg, 2 hr after dosing): 10.00 nmol/min/mL
- Lp-PLA2 Activity Radiometric (Lp-PLA2 [1]; 120 mg, 3 hr after dosing): 14.09 nmol/min/mL and 12.80 nmol/min/mL and 10.00 nmol/min/mL (2×) and 21.08 nmol/min/mL
- % Inhibition Radiometric (Lp-PLA2 [1]; 120 mg, 4 hr after dosing): 90.91% and 72.94%
- Lp-PLA2 Activity Radiometric (Lp-PLA2 [1]; 120 mg, 4 hr after dosing): 14.00 nmol/min/mL and 10.00 nmol/min/mL (2×)
- % Inhibition Radiometric (Lp-PLA2 [1]; 120 mg, 5 hr after dosing): 91.73%
- Lp-PLA2 Activity Radiometric (Lp-PLA2 [1]; 120 mg, 5 hr after dosing): 14.05 nmol/min/mL and 11.69 nmol/min/mL and 10.00 nmol/min/mL (2×) and 20.24 nmol/min/mL
- Lp-PLA2 Activity Radiometric (Lp-PLA2 [1]; 120 mg, 6 hr after dosing): 10.00 nmol/min/mL
- Lp-PLA2 Activity Radiometric (Lp-PLA2 [1]; 120 mg, 9 hr after dosing): 21.11 nmol/min/mL and 18.51 nmol/min/mL and 14.41 nmol/min/mL and 32.48 nmol/min/mL and 11.21 nmol/min/mL
- Lp-PLA2 Activity Radiometric (Lp-PLA2 [1]; 120 mg, 12 hr after dosing): 24.22 nmol/min/mL and 21.27 nmol/min/mL and 16.97 nmol/min/mL and 34.26 nmol/min/mL and 15.69 nmol/min/mL
- % Inhibition Auto PAF AH (Lp-PLA2 [2]; 0.5 hr after dosing): 10.84% and 0.65% and −6.65% and 10.66% and 8.03%
- Lp-PLA2 Activity Auto PAF AH (Lp-PLA2 [2]; 0.5 hr after dosing): 456.50 nmol/min/mL and 308.00 nmol/min/mL and 393.00 nmol/min/mL and 272.50 nmol/min/mL and 647.00 nmol/min/mL
- % Inhibition Auto PAF AH (Lp-PLA2 [2]; 1 hr after dosing): 11.15% and 14.00% and 19.04%
- Lp-PLA2 Activity Auto PAF AH (Lp-PLA2 [2]; 1 hr after dosing): 271.00 nmol/min/mL and 605.00 nmol/min/mL and 242.00 nmol/min/mL and 340.50 nmol/min/mL
- % Inhibition Auto PAF AH (Lp-PLA2 [2]; 2 hr after dosing): 10.98% and 20.47% and 9.03%
- Lp-PLA2 Activity Auto PAF AH (Lp-PLA2 [2]; 2 hr after dosing): 271.50 nmol/min/mL and 559.50 nmol/min/mL and 282.00 nmol/min/mL and 348.00 nmol/min/mL
- Lp-PLA2 Activity Auto PAF AH (Lp-PLA2 [2]; 3 hr after dosing): 277.50 nmol/min/mL and 602.50 nmol/min/mL and 435.00 nmol/min/mL and 287.50 nmol/min/mL and 348.00 nmol/min/mL
- % Inhibition Auto PAF AH (Lp-PLA2 [2]; 4 hr after dosing): 15.90% and 10.52% and 0.32% and 8.14%
- Lp-PLA2 Activity Auto PAF AH (Lp-PLA2 [2]; 4 hr after dosing): 256.50 nmol/min/mL and 629.50 nmol/min/mL and 409.00 nmol/min/mL and 309.00 nmol/min/mL and 338.50 nmol/min/mL
- % Inhibition Auto PAF AH (Lp-PLA2 [2]; 5 hr after dosing): 10.33% and 7.39% and 24.80% and 9.84% and 8.68%
- Lp-PLA2 Activity Auto PAF AH (Lp-PLA2 [2]; 5 hr after dosing): 273.50 nmol/min/mL and 651.50 nmol/min/mL and 385.00 nmol/min/mL and 279.50 nmol/min/mL and 336.50 nmol/min/mL
- % Inhibition Auto PAF AH (Lp-PLA2 [2]; 6 hr after dosing): 10.33% and 8.74% and 24.12% and 11.80%
